Assay results from PubChem BioAssay (NCI).
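Five compound concentrations were applied to cells in 96-well plates for 48 hours; endpoints were derived by simple linear interpolation of the resulting dose-response curve. TGI is the concentration that stops growth completely.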

Legend:
Experiment in all cases: growth of human tumour cells (NCI), 48 h
[1] = test system: 786-0 renal
[2] = test system: A498 renal
[3] = test system: A549 NSCLC
[4] = test system: ACHN renal
[5] = test system: BT-549 breast
[6] = test system: CAKI-1 renal
[7] = test system: CCRF-CEM leukemia
[8] = test system: COLO 205 colon
[9] = test system: DU-145 prostate
[10] = test system: EKVX NSCLC
[11] = test system: HCC-2998 colon
[12] = test system: HCT-116 colon
[13] = test system: HCT-15 colon
[14] = test system: HL-60(TB) leukemia
[15] = test system: HOP-62 NSCLC
[16] = test system: HOP-92 NSCLC
[17] = test system: HS 578T breast
[18] = test system: HT29 colon
[19] = test system: IGROV1 ovarian
[20] = test system: K-562 leukemia
[21] = test system: KM12 colon
[22] = test system: LOX IMVI melanoma
[23] = test system: MALME-3M melanoma
[24] = test system: MCF7 breast
[25] = test system: MDA-MB-231 breast
[26] = test system: MDA-MB-435
[27] = test system: MDA-N
[28] = test system: MOLT-4 leukemia
[29] = test system: NCI-H226 lung
[30] = test system: NCI-H23 lung
[31] = test system: NCI-H460 lung
[32] = test system: NCI-H522 lung
[33] = test system: NCI/ADR-RES ovarian
[34] = test system: OVCAR-3 ovarian
[35] = test system: OVCAR-4 ovarian
[36] = test system: OVCAR-5 ovarian
[37] = test system: OVCAR-8 ovarian
[38] = test system: PC-3 prostate
[39] = test system: RPMI-8226 leukemia
[40] = test system: RXF 393 renal
[41] = test system: SF-268 CNS
[42] = test system: SF-295 CNS
[43] = test system: SF-539 CNS
[44] = test system: SK-MEL-28 melanoma
[45] = test system: SK-MEL-5 melanoma
[46] = test system: SK-OV-3 ovarian
[47] = test system: SN12C renal
[48] = test system: SNB-75 CNS
[49] = test system: SR leukemia
[50] = test system: SW-620 colon
[51] = test system: T-47D breast
[52] = test system: TK-10 renal
[53] = test system: U251 CNS
[54] = test system: UACC-257 melanoma
[55] = test system: UACC-62 melanoma
[56] = test system: UO-31 renal
[57] = test system: M14 melanoma
[58] = test system: SK-MEL-2 melanoma
[59] = test system: SNB-19 CNS

Measured: TGI

Cc1ccc(C2=Nn3c(nc4sc5c(c4c3=O)CCCC5)SC2)cc1
not listed: [57] | [58] | [59]
> 100 µM: all other assays above

CC(C(=O)O)C1Nc2ccccc2NC1=O (configuration not stated)
not listed: [15] | [32] | [47]
> 100 µM: all other assays above

Cc1c(-c2ccccc2)c(C#N)c2nnn(C)c(=O)n12
not listed: [28]
> 100 µM: all other assays above

O=C(/N=C1/OC(CN2CCOCC2)CN1C(=O)Nc1ccccc1)Nc1ccccc1 (configuration not stated)
not listed: [34] | [43]
> 100 µM: all other assays above
